Key:
[1] = test system: peptide-pulsed T2 cells; assay: IFN-gamma ELISPOT assay on CTLs induced with peptide-pulsed DCs; type: cell-based, human; conditions: CTLs from HLA-A*0201 positive donor, compared to control wells
Excerpt: Monocyte-derived dendritic cells (DCs) were used as antigen-presenting cells to induce cytotoxic T lymphocyte (CTL) responses against peptides presented on human leukocyte antigen (HLA). DCs were generated in vitro as described elsewhere (Nakahara S et al., Cancer Res 2003 Jul. 15, 63(14): 4112-8). Specifically, peripheral blood mononuclear cells isolated from a normal volunteer (HLA-A*0201 positive) by Ficoll-Paque plus (Pharmacia) solution were separated by adherence to a plastic tissue culture dish (Becton Dickinson) so as to enrich them as the monocyte fraction. The monocyte-enriched population was cultured in the presence of 1000 U/ml of granulocyte-macrophage colony-stimulating factor (R&D System) and 1000 U/ml of interleukin (IL)-4 (R&D System) in AIM-V Medium (Invitrogen) containing 2% heat-inactivated autologous serum (AS). After 7 days of culture, the cytokine-induced DCs were pulsed with 20 micro g/ml of each of the synthesized peptides in the presence of 3 micro g/ml of beta 2-microglobulin for 3 hr at 37 degree C. in AIM-V Medium. The generated cells appeared to express DC-associated molecules, such as CD80, CD83, CD86 and HLA class II, on their cell surfaces (data not shown). These peptide-pulsed DCs were then inactivated by X ray-irradiated (20 Gy) and mixed at a 1:20 ratio with autologous CD8+ T cells, obtained by positive selection with CD8 Positive Isolation Kit (Dynal). These cultures were set up in 48-well plates (Corning); each well contained 1.5×10^4 peptide-pulsed DCs, 3×10^5 CD8+ T cells and 10 ng/ml of IL-7 (R&D System) in 0.5 ml of AIM-V/2% AS medium. Three days later, these cultures were supplemented with IL-2 (CHIRON) to a final concentration of 20 IU/ml. On day 7 and 14, the T cells were further stimulated with the autologous peptide-pulsed DCs. The DCs were prepared each time by the same way described above. CTLs were tested against peptide-pulsed T2 cells after the 3rd round of peptide stimulation on day 21 (Tanaka H et al., Br J Cancer 2001 Jan. 5, 84(1): 94-9; Umano Y et al., Br J Cancer 2001 Apr. 20, 84(8): 1052-7; Uchida N et al., Clin Cancer Res 2004 December 15, 10(24): 8577-86; Suda T et al., Cancer Sci 2006 May, 97(5): 411-9; Watanabe T et al., Cancer Sci 2005 August, 96(8): 498-506).
(§1) To examine specific CTL activity, interferon(IFN)-gamma enzyme-linked immunospot (ELISPOT) assay and IFN-gamma enzyme-linked immunosorbent assay (ELISA) were performed. Peptide-pulsed T2 (1×10^4/well) was prepared as stimulator cells. Cultured cells in 48-well plate, CTL lines and CTL clones were used as responder cells. IFN-gamma ELISPOT assay and IFN-gamma ELISA assay were performed under manufacture procedure.

[2] = test system: peptide-pulsed T2 cells; assay: IFN-gamma ELISA of expanded CTL lines; type: cell-based, human; conditions: target cells pulsed with corresponding peptide vs without peptide pulse
Method: CTLs were expanded in culture using the method similar to the one described by Riddell et al. (Walter E A et al., N Engl J Med 1995 Oct. 19, 333(16): 1038-44; Riddell S R et al., Nat Med 1996 February, 2(2): 216-23). A total of 5×10^4 CTLs were suspended in 25 ml of AIM-V/5% AS medium with 2 kinds of human B-lymphoblastoid cell lines, inactivated by Mitomycin C, in the presence of 40 ng/ml of anti-CD3 monoclonal antibody (Pharmingen). One day after initiating the cultures, 120 IU/ml of IL-2 were added to the cultures. The cultures were fed with fresh AIM-V/5% AS medium containing 30 IU/ml of IL-2 on days 5, 8 and 11 (Tanaka H et al., Br J Cancer 2001 Jan. 5, 84(1): 94-9; Umano Y et al., Br J Cancer 2001 Apr. 20, 84(8): 1052-7; Uchida N et al., Clin Cancer Res 2004 Dec. 15, 10(24): 8577-86; Suda T et al., Cancer Sci 2006 May, 97(5): 411-9; Watanabe T et al., Cancer Sci 2005 August, 96(8): 498-506).
as §1

[3] = test system: peptide-pulsed T2 cells; assay: IFN-gamma ELISA of CTL clones established by limiting dilution; type: cell-based, human; conditions: target cells pulsed with each peptide
Method: The dilutions were made to have 0.3, 1, and 3 CTLs/well in 96 round-bottomed micro titer plate (Nalge Nunc International). CTLs were cultured with 1×10^4 cells/well of 2 kinds of human B-lymphoblastoid cell lines, 30 ng/ml of anti-CD3 antibody, and 125 U/ml of IL-2 in a total of 150 micro 1/well of AIM-VMedium containing 5% AS. 50 micro 1/well of IL-2 were added to the medium 10 days later so to reach a final concentration of 125 U/ml IL-2. CTL activity was tested on the 14th day, and CTL clones were expanded using the same method as described above (Uchida N et al., Clin Cancer Res 2004 Dec. 15, 10(24): 8577-86; Suda T et al., Cancer Sci 2006 May, 97(5): 411-9; Watanabe T et al., Cancer Sci 2005 August, 96(8): 498-506).
as §1

[4] = test system: COS7 cells transfected with SEMA5B and HLA-A*0201; assay: Specific CTL activity against target cells expressing SEMA5B and HLA-A*0201; type: cell-based, African green monkey
Method: as §1
The cDNA encoding an open reading frame of target genes or HLA-A*0201 was amplified by PCR. The PCR-amplified product was cloned into expression vector. The plasmids were transfected into COS7, which is HLA-A*0201-null cell line, using lipofectamine 2000 (Invitrogen) according to the manufacturer's recommended procedures. After 2 days from transfection, the transfected cells were harvested with versene (Invitrogen) and used as the stimulator cells (5×10^4 cells/well) for CTL activity assay.

| Sequence | Peptide-specific CTL activity (IFN-gamma production) [1] | IFN-gamma production of CTL lines [2] | IFN-gamma production of CTL clones [3] | CTL activity of CTL line against COS7 cells expressing both SEMA5B and HLA-A*0201 ([4]; COS7 transfected with both full length SEMA5B and HLA-A*0201) | CTL activity of CTL line against control COS7 cells ([4]; COS7 transfected with either full length SEMA5B or HLA-A*0201) |
| --- | --- | --- | --- | --- | --- |
| GLLTLAVYL [SEQ ID NO: 7, 9 mer peptide derived from SEMA5B, start position 1049] | potent IFN-gamma production |  |  |  |  |
| LIYGVFTTNV [SEQ ID NO: 34, 10 mer peptide derived from SEMA5B, start position 370] | potent IFN-gamma production | potent IFN-gamma production | Potent IFN-gamma production |  |  |
| LLLPSLTLLV [SEQ ID NO: 27, 10 mer peptide derived from SEMA5B, start position 69] | potent IFN-gamma production | potent IFN-gamma production | Potent IFN-gamma production | potent CTL activity | no significant specific CTL activity was detected |
| LLPSLTLLV [SEQ ID NO: 5, 9 mer peptide derived from SEMA5B, start position 70] | potent IFN-gamma production | potent IFN-gamma production | Potent IFN-gamma production |  |  |
| MVLAGPLAV [SEQ ID NO: 8, 9 mer peptide derived from SEMA5B, start position 59; typical negative case] | not shown specific IFN-gamma production |  |  |  |  |

— patent publication US9187556B2, “SEMA5B peptides and vaccines including the same” (OncoTherapy Science, Inc., priority 2011, dated 2015)
